Our source for the melting point and IC50 values is patent US8580803B2, “Substituted pyrrolo-aminopyrimidine compounds” (ArQule, Inc., priority 2009, dated 2013).

The structures appear in SMILES notation.

Series [1] addresses T1, ACK1 (110-489) (Homo sapiens, UniProt Q07912).
T1 construct: ACK1 110-489 (12.5 μl) were added to each well
The series can be described thus: ACK1 Activity Assay (AlphaScreen, PYK2-derived peptide). Particulars: Average of ACK1(110-489), IC50, AlphaScreen (Pyk2); read-out: ACK1 (110-489) IC50. The format is biochemical. The method, then: The extent of peptide phosphorylation was determined by using acceptor beads conjugated to phosphotyrosine antibody that recognizes the phosphorylated peptide and donor beads conjugated to streptavidin that binds to the biotin on the peptide. Excitation of the donor beads converted ambient oxygen to excited singlet oxygen which when in close proximity to acceptor beads, reacted with acceptor beads where the signal was amplified.
Test inhibitors and controls (N-(2,6-dimethylphenyl)-4-(2-ethoxyphenoxy)-2-[(4-piperazin-1-ylphenyl)amino]pyrimidine-5-carboxamide) were prepared in 10% DMSO at 10× the desired final concentration. […] After a 20-min incubation at room temperature, the kinase reaction was initiated by the addition of 10 μl of PYK2/ATP mixture. […] The plates were incubated for 60 min at room temperature. The reaction was stopped by the addition of 10 μl stop/detection mixture which contains EDTA (final concentration is 10 mM), AlphaScreen™ Streptavidin Donor beads (final concentration is 500 ng/well) and AlphaScreen™ Phospho-tyrosine (P-Tyr-100) Acceptor beads (final concentration is 500 ng/well) were diluted in assay buffer. This reagent addition step was performed in the dark because the AlphaScreen™ beads are light-sensitive. The plate was incubated for 60 min at room temperature in the dark and the plates were read on the Perkin Elmer Envision Multilabel plate reader ([…]).

T1 sequence (Q07912 110-489, species assumed): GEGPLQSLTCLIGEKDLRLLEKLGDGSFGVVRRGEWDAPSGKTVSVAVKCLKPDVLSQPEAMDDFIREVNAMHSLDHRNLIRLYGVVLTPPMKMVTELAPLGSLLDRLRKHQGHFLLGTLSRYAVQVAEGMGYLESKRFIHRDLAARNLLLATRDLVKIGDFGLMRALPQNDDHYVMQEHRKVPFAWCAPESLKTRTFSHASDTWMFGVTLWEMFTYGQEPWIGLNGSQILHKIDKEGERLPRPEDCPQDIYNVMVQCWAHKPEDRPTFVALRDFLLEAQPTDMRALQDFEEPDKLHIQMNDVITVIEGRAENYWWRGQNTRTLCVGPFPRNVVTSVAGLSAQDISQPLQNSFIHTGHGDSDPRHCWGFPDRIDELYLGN

As usually defined, the melting point is the temperature, or range, at which the solid turns liquid. The molecule `CC(=O)Nc1ccc(Nc2ncnc3[nH]cc(C(=O)c4ccccc4)c23)cc1` displayed a melting point of 263 to 264 °C.

In general, IC50 refers to the concentration that gives 50% inhibition. Turning to `CCNC(=O)Nc1cccc(Nc2ncnc3[nH]cc(C(=O)c4ccccc4)c23)c1` [drawing 275, 1-ethyl-3-(3-{[5-(phenylcarbonyl)-7H-pyrrolo[2,3-d]pyrimidin-4-yl]amino}phenyl)urea], in series [1], the IC50 turned out to be 1810 nM.

Turning to `CNC(=O)c1cccc(Nc2ncnc3[nH]cc(C(=O)c4cccc(F)c4)c23)c1` [drawing 244, 3-{[5-(3-fluorobenzoyl)-7H-pyrrolo[2,3-d]pyrimidin-4-yl]amino}-N-methylbenzamide], the IC50 in series [1] was 914 nM.

Take `CC(=O)NCCC(=O)Nc1ccc(Nc2ncnc3[nH]cc(C(=O)c4ccccc4)c23)cc1` [3-acetamido-N-(4-((5-benzoyl-7H-pyrrolo[2,3-d]pyrimidin-4-yl)amino)phenyl)propanamide]: the IC50 in series [1] is 776 nM.

`CC(=O)NCC(=O)Nc1cc(Cl)cc(Nc2ncnc3[nH]cc(C(=O)c4ccccc4)c23)c1` had a melting point greater than 300 °C.

In the case of `CNC(=O)c1cccc(Nc2ncnc3[nH]cc(C(=O)c4ccc(Cl)cc4)c23)c1`, the melting point is greater than 300 °C.

As to `COC(=O)c1cc(NC(=O)CNC(C)=O)cc(Nc2ncnc3[nH]cc(C(=O)c4ccccc4)c23)c1` [drawing 277, methyl 3-[(N-acetylglycyl)amino]-5-{[5-(phenylcarbonyl)-7H-pyrrolo[2,3-d]pyrimidin-4-yl]amino}benzoate], the IC50 in series [1] turned out to be 2000 nM.

With `O=C(Cn1ccnc1)Nc1ccc(Nc2ncnc3[nH]cc(C(=O)c4ccccc4)c23)cc1` [2-(1H-imidazol-1-yl)-N-(4-{[5-(phenylcarbonyl)-7H-pyrrolo[2,3-d]pyrimidin-4-yl]amino}phenyl)acetamide], in series [1], the IC50 came to 798 nM.

Consider `NCc1ccc(Nc2ncnc3[nH]cc(C(=O)c4ccccc4)c23)cc1` [drawing 258, (4-{[4-(aminomethyl)phenyl]amino}-7H-pyrrolo[2,3-d]pyrimidin-5-yl)(phenyl)methanone], for which the IC50 in series [1] is 446 nM.

For `CN(C)CCC(=O)Nc1ccc(Nc2ncnc3[nH]cc(C(=O)c4ccccc4)c23)cc1` [N-(4-((5-benzoyl-7H-pyrrolo[2,3-d]pyrimidin-4-yl)amino)phenyl)-3-(dimethylamino)propanamide], the IC50 in series [1] is 415 nM.

Take `CCCC(=O)Nc1ccc(Nc2ncnc3[nH]cc(C(=O)c4ccccc4)c23)cc1` [N-{4-[(5-benzoyl-7H-pyrrolo[2,3-d]pyrimidin-4-yl)amino]phenyl}butanamide]: the half-inhibitory concentration (IC50) in series [1] stood at 3770 nM.

In the case of `CC(=O)Nc1cccc(Nc2ncnc3[nH]cc(C(=O)c4cccc(F)c4)c23)c1` [drawing 245, N-(3-{[5-(3-fluorobenzoyl)-7H-pyrrolo[2,3-d]pyrimidin-4-yl]amino}phenyl)acetamide], the IC50 in series [1] is 2290 nM.

`O=C(Nc1ccc(N2CCCCC2)cc1)c1cccc(Nc2ncnc3[nH]cc(C(=O)c4ccccc4)c23)c1` [3-[(5-benzoyl-7H-pyrrolo[2,3-d]pyrimidin-4-yl)amino]-N-(4-piperidin-1-ylphenyl)benzamide]: the IC50 in series [1] is 31400 nM.

Regarding `CC(=O)Nc1cccc(Nc2ncnc3c2c(C(=O)c2ccccc2)cn3C)c1`, the melting point lay in the range of 140 to 142 °C.

Consider `CNC(=O)c1cccc(Nc2ncnc3[nH]cc(C(=O)c4ccccc4C)c23)c1`, for which the melting point was greater than 300 °C.

For `CC(C)(C)OC(=O)NCc1cccc(Nc2ncnc3[nH]cc(C(=O)c4ccccc4)c23)c1`, the melting point was in the range of 210 to 212 °C.

Turning to `O=C(c1ccccc1)c1c[nH]c2ncnc(Nc3ccc4cc[nH]c4c3)c12` [(4-((1H-indol-6-yl)amino)-7H-pyrrolo[2,3-d]pyrimidin-5-yl)(phenyl)methanone], the IC50 in series [1] was determined as 61500 nM.

On to `O=C(Nc1ccc(Nc2ncnc3[nH]cc(C(=O)c4ccccc4)c23)cc1)c1ccncc1Cl` [3-chloro-N-(4-{[5-(phenylcarbonyl)-7H-pyrrolo[2,3-d]pyrimidin-4-yl]amino}phenyl)pyridine-4-carboxamide], for which, in series [1], the IC50 turned out to be 28900 nM.

`CC(=O)Nc1cccc(Nc2ncnc3[nH]cc(C(=O)c4cccc5ccccc45)c23)c1` yielded a melting point greater than 300 °C.

Take `O=C(c1ccccc1)c1c[nH]c2ncnc(Nc3ccc(NC(=O)C4CCN(c5ccncc5)CC4)cc3)c12` [N-(4-{[5-(phenylcarbonyl)-7H-pyrrolo[2,3-d]pyrimidin-4-yl]amino}phenyl)-1-pyridin-4-ylpiperidine-4-carboxamide]: the half-inhibitory concentration (IC50) in series [1] turned out to be 1270 nM.

Molecule `CCNC(=O)Nc1cccc(Nc2ncnc3[nH]cc(C(=O)c4ccccc4)c23)c1` registered a melting point of 183 to 185 °C.

Take `COCCCC(=O)Nc1ccc(Nc2ncnc3[nH]cc(C(=O)c4ccccc4)c23)cc1` [4-methoxy-N-(4-{[5-(phenylcarbonyl)-7H-pyrrolo[2,3-d]pyrimidin-4-yl]amino}phenyl)butanamide]: in series [1], the IC50 stood at 1020 nM.

Turning to `COc1ccc(Nc2ncnc3[nH]cc(C(=O)c4ccccc4)c23)c(OC)c1` [(4-((2,4-dimethoxy-phenyl)amino)-7H-pyrrolo[2,3-d]pyrimidin-5-yl)(phenyl)methanone], in series [1], the IC50 came out at 4530 nM.

Consider `CC(=O)Nc1ccc(Nc2ncnc3[nH]cc(C(=O)c4ccccc4)c23)cc1` [drawing 241, N-{4-[(5-benzoyl-7H-pyrrolo[2,3-d]pyrimidin-4-yl)amino]phenyl}acetamide], for which the IC50 in series [1] is 1430 nM.

Regarding `CN(C)CC(=O)Nc1ccc(Nc2ncnc3[nH]cc(C(=O)c4ccccc4)c23)cc1` [N-(4-((5-benzoyl-7H-pyrrolo[2,3-d]pyrimidin-4-yl)amino)phenyl)-2-(dimethylamino)acetamide], the IC50 in series [1] came out at 241 nM.

As for `CN(C)CCCC(=O)Nc1ccc(Nc2ncnc3[nH]cc(C(=O)c4ccccc4)c23)cc1` [4-(dimethylamino)-N-(4-{[5-(phenylcarbonyl)-7H-pyrrolo[2,3-d]pyrimidin-4-yl]amino}phenyl)butanamide], the half-maximal inhibitory concentration (IC50) in series [1] came out at 2570 nM.

Regarding `O=C(Cc1cncc(Br)c1)Nc1cccc(Nc2ncnc3[nH]cc(C(=O)c4ccccc4)c23)c1` [drawing 251, N-{3-[(5-benzoyl-7H-pyrrolo[2,3-d]pyrimidin-4-yl)amino]phenyl}-2-(5-bromopyridin-3-yl)acetamide], the half-maximal inhibitory concentration (IC50) in series [1] came to 1470 nM.

As to `CNC(=O)c1cccc(Nc2ncnc3[nH]cc(C(=O)c4ccccc4C)c23)c1` [drawing 242, N-methyl-3-{[5-(2-methylbenzoyl)-7H-pyrrolo[2,3-d]pyrimidin-4-yl]amino}benzamide], the IC50 in series [1] is 189 nM.

Consider `COCc1ccc(CC(=O)Nc2ccc(Nc3ncnc4[nH]cc(C(=O)c5ccccc5)c34)cc2)cc1` [2-[4-(methoxymethyl)phenyl]-N-(4-{[5-(phenylcarbonyl)-7H-pyrrolo[2,3-d]pyrimidin-4-yl]amino}phenyl)acetamide], for which the IC50 in series [1] came to 69000 nM.

For `CC(C)C(=O)Nc1ccc(Nc2ncnc3[nH]cc(C(=O)c4ccccc4)c23)cc1` [N-{4-[(5-benzoyl-7H-pyrrolo[2,3-d]pyrimidin-4-yl)amino]phenyl}-2-methylpropanamide], the IC50 in series [1] was 4770 nM.

Regarding `CC(C)(C)NC(=O)Nc1cccc(Nc2ncnc3[nH]cc(C(=O)c4ccccc4)c23)c1` [drawing 274, 1-tert-butyl-3-(3-{[5-(phenylcarbonyl)-7H-pyrrolo[2,3-d]pyrimidin-4-yl]amino}phenyl)urea], the IC50 in series [1] stood at 6650 nM.

Regarding `O=C(c1ccccc1)c1c[nH]c2ncnc(Nc3cccc(CO)c3)c12` [drawing 276, (4-{[3-(hydroxymethyl)phenyl]amino}-7H-pyrrolo[2,3-d]pyrimidin-5-yl)(phenyl)methanone], the IC50 in series [1] was determined as 240 nM.

Take `O=C(Nc1ccc(Nc2ncnc3[nH]cc(C(=O)c4ccccc4)c23)cc1)c1ccc(CN2CCOCC2)cc1` [4-(morpholin-4-ylmethyl)-N-(4-{[5-(phenylcarbonyl)-7H-pyrrolo[2,3-d]pyrimidin-4-yl]amino}phenyl)benzamide]: the IC50 in series [1] turned out to be 10900 nM.

In the case of `O=C(Nc1ccccc1)Nc1cccc(Nc2ncnc3[nH]cc(C(=O)c4ccccc4)c23)c1` [drawing 260, 1-phenyl-3-(3-{[5-(phenylcarbonyl)-7H-pyrrolo[2,3-d]pyrimidin-4-yl]amino}phenyl)urea], the half-maximal inhibitory concentration (IC50) in series [1] was found to be 28100 nM.

For the molecule `Cc1cccc(Nc2ncnc3[nH]cc(C(=O)c4ccccc4)c23)c1` [phenyl(4-(m-tolylamino)-7H-pyrrolo[2,3-d]pyrimidin-5-yl)methanone], in series [1], the IC50 worked out at 55400 nM.

Regarding `O=C(CCc1cccnc1)Nc1ccc(Nc2ncnc3[nH]cc(C(=O)c4ccccc4)c23)cc1` [N-(4-{[5-(phenylcarbonyl)-7H-pyrrolo[2,3-d]pyrimidin-4-yl]amino}phenyl)-3-pyridin-3-ylpropanamide], the IC50 in series [1] was 4390 nM.

With `O=C(c1ccccc1)c1c[nH]c2ncnc(Nc3cccc(CCO)c3)c12` [drawing 259, (4-{[3-(2-hydroxyethyl)phenyl]amino}-7H-pyrrolo[2,3-d]pyrimidin-5-yl)(phenyl)methanone], the half-inhibitory concentration (IC50) in series [1] was found to be 5140 nM.

Take `CC(=O)Nc1cccc(Nc2ncnc3[nH]cc(C(=O)c4ccccc4C)c23)c1` [drawing 243, N-(3-{[5-(2-methylbenzoyl)-7H-pyrrolo[2,3-d]pyrimidin-4-yl]amino}phenyl)acetamide]: the IC50 in series [1] stood at 1260 nM.

Turning to `NC(=O)CCC(=O)Nc1ccc(Nc2ncnc3[nH]cc(C(=O)c4ccccc4)c23)cc1` [N-(4-{[5-(phenylcarbonyl)-7H-pyrrolo[2,3-d]pyrimidin-4-yl]amino}phenyl)butanediamide], the IC50 in series [1] worked out at 646 nM.
